According to US12344610B2, “APOL1 inhibitors and methods of use” (Maze Therapeutics, Inc., priority 2022, dated 2025):
Read-outs that look alike come from different tables or passages of the source.

Experiments:
Assay type in all cases: cell-based
Settings in all cases: geometric mean of at least 2 assay runs, † = single assay run
[1] = system: Trypanosoma brucei Lister 427 VSG221 with APOL1 G1 recombinant protein; assay: APOL1 G1 trypanosome cell rescue assay (Example B5)
Summary of the method: (§1)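 Luminescent ATP read-out (CellTiter-Glo) of trypanosome viability after 20 h at 37° C. Bloodstream T. brucei Lister 427 VSG221, 250/well in modified HMI-9, were exposed to recombinant mature APOL1 (aa 28-398) from a 2 μg/mL addition, plus compound in 11-point 2-fold series.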

[2] = system: Trypanosoma brucei Lister 427 VSG221 with APOL1 G2 recombinant protein; assay: APOL1 G2 trypanosome cell rescue assay (Example B5)
Summary of the method: as §1

[3] = system: Trypanosoma brucei Lister 427 VSG221 with APOL1 G0 recombinant protein; assay: APOL1 G0 trypanosome cell rescue assay (Example B5)
Summary of the method: as §1

[4] = system: HEK293 cells overexpressing APOL1 G2; assay: APOL1 G2 HEK293 cell rescue assay (reversal of cell death caused by overexpression of APOL1)
Summary of the method: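 Each compound tested in duplicate wells on one plate per run, with values usually the geometric mean across at least two runs on different days, occasionally from one run only. Read-out: concentration giving half-maximal rescue of APOL1 G2 overexpression-induced death of HEK293 cells.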

[5] = Trypanosoma brucei, 20 h, read-out: APOL1 G1 Trypanosome Rescue EC50, Trypanosoma brucei Lister 427 VSG221 with APOL1 G1 recombinant protein, 20 hours, CellTiter-Glo
[6] = Trypanosoma brucei, 20 h, read-out: APOL1 G2 Trypanosome Rescue EC50, Trypanosoma brucei Lister 427 VSG221 with APOL1 G2 recombinant protein, 20 hours, CellTiter-Glo
[7] = Trypanosoma brucei, 20 h, read-out: APOL1 G0 Trypanosome Rescue EC50, Trypanosoma brucei Lister 427 VSG221 with APOL1 G0 recombinant protein, 20 hours, CellTiter-Glo
[8] = Homo sapiens, HEK293, HEK293 overexpressing APOL1 G2
[9] = read-out: APOL1 G1 Trypanosome Rescue EC50, Trypanosoma brucei Lister 427 VSG221 with APOL1 G1 recombinant protein, 20 hours, CellTiter-Glo
[10] = read-out: APOL1 G2 Trypanosome Rescue EC50, Trypanosoma brucei Lister 427 VSG221 with APOL1 G2 recombinant protein, 20 hours, CellTiter-Glo
[11] = read-out: APOL1 G0 Trypanosome Rescue EC50, Trypanosoma brucei Lister 427 VSG221 with APOL1 G0 recombinant protein, 20 hours, CellTiter-Glo

Structure (SMILES)	EC50 [1, 5] [nM]	EC50 [2, 6] [nM]	EC50 [3, 7] [nM]	EC50 [4, 8] [nM]	EC50 [1, 9] [nM]	EC50 [2, 10] [nM]	EC50 [3, 11] [nM]	EC50 ([4]; HEK293 overexpressing APOL1 G2) [nM]
O=C1Nc2ccc(Cl)cc2C12CCN(CCOc1ccc3c(cnn3[C@H]3C[C@@H](O)C3)c1)CC2 [Compound 85, 5-chloro-1′-[2-({1-[(cis)-3-hydroxycyclobutyl]-1H-indazol-5-yl}oxy)ethyl]-1,2-dihydrospiro[indole-3,4′-piperidin]-2-one]	190	48.5	115	70.3				
CC(c1ncc(OCCN2CCC3(CC2)C(=O)Nc2ccc(Cl)cc23)cn1)S(C)(=O)=O (single isomer, unassigned) [Compound 2, 5-chloro-1′-[2-({2-[(1S) or (1R)-1-methanesulfonylethyl]pyrimidin-5-yl}oxy)ethyl]-1,2-dihydrospiro[indole-3,4′-piperidin]-2-one]	191	56.3	192	134				
O=C1CCc2cc(OCCN3CCC4(CC3)C(=O)Nc3ccc(Cl)cc34)cnc2N1[C@H]1C[C@H](O)C1 [Compound 267, 5-chloro-1′-[2-({7-oxo-8-[(trans)-3-hydroxycyclobutyl]-5,6,7,8-tetrahydro-1,8-naphthyridin-3-yl}oxy)ethyl]-1,2-dihydrospiro[indole-3,4′-piperidin]-2-one]	115	33.7	95.4	37.8				
CC1(O)CN(c2ncc(OCCN3CCC4(CC3)C(=O)Nc3ccc(C(F)F)cc34)cn2)C1 [Compound 395, 5-(difluoromethyl)-1′-(2-{[2-(3-hydroxy-3-methylazetidin-1-yl)pyrimidin-5-yl]oxy}ethyl)-1,2-dihydrospiro[indole-3,4′-piperidin]-2-one]	312	106	240	86.8				
CN1C(=O)CCc2cc(OCCN3CCC4(CC3)C(=O)Nc3ccc(C#N)cc34)ccc21 [Compound 95, 1′-{2-[(1-methyl-2-oxo-1,2,3,4-tetrahydroquinolin-6-yl)oxy]ethyl}-2-oxo-1,2-dihydrospiro[indole-3,4′-piperidine]-5-carbonitrile]	703	222	592	246				
CC(O)c1ncc(OCCN2CCC3(CC2)C(=O)Nc2ccc(C#N)cc23)cc1C(F)(F)F (single isomer, unassigned) [Compound 376, 1′-[2-({6-[(1S) or (1R)-1-hydroxyethyl]-5-(trifluoromethyl)pyridin-3-yl}oxy)ethyl]-2-oxo-1,2-dihydrospiro[indole-3,4′-piperidine]-5-carbonitrile]				46.9	115	39.9	95.6	
CS(=O)(=O)N1CCc2cc(OCCN3CCC4(CC3)C(=O)Nc3ccc(Cl)cc34)ccc2C1 [Compound 94, 5-chloro-1′-{2-[(2-methanesulfonyl-1,2,3,4-tetrahydroisoquinolin-6-yl)oxy]ethyl}-1,2-dihydrospiro[indole-3,4′-piperidin]-2-one]	424	129	403	140				
O=C1CCc2cc(OCCN3CCC4(CC3)C(=O)Nc3ccc(Cl)cc34)ccc2N1 [Compound 82, 5-chloro-1′-{2-[(2-oxo-1,2,3,4-tetrahydroquinolin-6-yl)oxy]ethyl}-1,2-dihydrospiro[indole-3,4′-piperidin]-2-one]	344	113	254	72.2				
CS(=O)(=O)C1(c2ccc(OCCN3CCC4(CC3)C(=O)Nc3ccc(Cl)cc34)cc2)CC(O)C1 (stereo not drawn) [Compound 270, 5-chloro-1′-(2-{4-[(trans) or (cis)-3-hydroxy-1-methanesulfonylcyclobutyl]phenoxy}ethyl)-1,2-dihydrospiro[indole-3,4′-piperidin]-2-one]					82.2	25.3	72.5	25.6
